Target: TRKA (Homo sapiens (Human), UniProt P04629)
Test: Isolated TRK enzyme assay (HTRF KinEASE-TK), TRKA
Format: biochemical
Conditions: read-out: Trka enzyme (IC50)

Chain of TRKA (P04629 441-796): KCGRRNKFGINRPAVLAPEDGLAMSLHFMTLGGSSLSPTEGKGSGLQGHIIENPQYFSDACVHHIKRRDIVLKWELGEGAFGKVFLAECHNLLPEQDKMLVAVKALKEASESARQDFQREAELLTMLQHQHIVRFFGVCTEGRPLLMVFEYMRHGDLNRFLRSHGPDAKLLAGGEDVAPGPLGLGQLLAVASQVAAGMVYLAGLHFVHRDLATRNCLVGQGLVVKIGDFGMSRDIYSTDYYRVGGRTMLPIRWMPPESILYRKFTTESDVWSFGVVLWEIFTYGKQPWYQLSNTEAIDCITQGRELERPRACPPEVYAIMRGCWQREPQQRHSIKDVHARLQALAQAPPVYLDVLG

| Structure (SMILES) | IC50 |
| --- | --- |
| Cc1c(-c2ccccc2)cnn1CC(=O)Nc1cncc(C(=O)c2cn(C(C)C)c3ncncc23)c1 [Example 149, N-{5-[(7-isopropyl-7H-pyrrolo[2,3-d]pyrimidin-5-yl)carbonyl]pyridin-3-yl}-2-(5-methyl-4-phenyl-1H-pyrazol-1-yl)acetamide] | 3570 nM |
| CC(C)n1cc(C(=O)c2cncc(NC(=O)Cc3cncc(Br)c3)c2)c2cncnc21 [Example 150, 2-(5-bromopyridin-3-yl)-N-{5-[(7-isopropyl-7H-pyrrolo[2,3-d]pyrimidin-5-yl)carbonyl]pyridin-3-yl}acetamide] | 51 nM |
| CC(C)n1cc(C(=O)c2cncc(NC(=O)Cc3ccccn3)c2)c2cncnc21 [Example 151, N-{5-[(7-isopropyl-7H-pyrrolo[2,3-d]pyrimidin-5-yl)carbonyl]pyridin-3-yl}-2-pyridin-2-ylacetamide] | 232 nM |
| COc1ccc(CC(=O)Nc2cncc(C(=O)c3cn(C(C)C)c4ncncc34)c2)cn1 [Example 152, N-{5-[(7-isopropyl-7H-pyrrolo[2,3-d]pyrimidin-5-yl)carbonyl]pyridin-3-yl}-2-(6-methoxypyridin-3-yl)acetamide] | 82.5 nM |
| Cc1ccc2[nH]c(C)c(CC(=O)Nc3cncc(C(=O)c4cn(C(C)C)c5ncncc45)c3)c2c1 [Example 153, 2-(2,5-dimethyl-1H-indol-3-yl)-N-{5-[(7-isopropyl-7H-pyrrolo[2,3-d]pyrimidin-5-yl)carbonyl]pyridin-3-yl}acetamide] | 71.5 nM |
| Cc1ccc(CC(=O)Nc2cncc(C(=O)c3cn(C(C)C)c4ncncc34)c2)cn1 [Example 154, N-{5-[(7-isopropyl-7H-pyrrolo[2,3-d]pyrimidin-5-yl)carbonyl]pyridin-3-yl}-2-(6-methylpyridin-3-yl)acetamide] | 94.1 nM |
| Cc1ccc2ccc(CC(=O)Nc3cncc(C(=O)c4cn(C(C)C)c5ncncc45)c3)cc2n1 [Example 155, N-{5-[(7-isopropyl-7H-pyrrolo[2,3-d]pyrimidin-5-yl)carbonyl]pyridin-3-yl}-2-(2-methylquinolin-7-yl)acetamide] | 49.1 nM |
| COc1ccc2[nH]c(C)c(CC(=O)Nc3cncc(C(=O)c4cn(C(C)C)c5ncncc45)c3)c2c1 [Example 156, N-{5-[(7-isopropyl-7H-pyrrolo[2,3-d]pyrimidin-5-yl)carbonyl]pyridin-3-yl}-2-(5-methoxy-2-methyl-1H-indol-3-yl)acetamide] | 133 nM |
| CC(C)n1cc(C(=O)c2cncc(NC(=O)Cc3ccc4nnnn4n3)c2)c2cncnc21 [Example 157, N-{5-[(7-isopropyl-7H-pyrrolo[2,3-d]pyrimidin-5-yl)carbonyl]pyridin-3-yl}-2-tetrazolo[1,5-b]pyridazin-6-ylacetamide] | 174 nM |
| CC(C)n1cc(C(=O)c2cncc(NC(=O)Cc3c[nH]c4ccc(O)cc34)c2)c2cncnc21 [Example 158, 2-(5-hydroxy-1H-indol-3-yl)-N-{5-[(7-isopropyl-7H-pyrrolo[2,3-d]pyrimidin-5-yl)carbonyl]pyridin-3-yl}acetamide] | 230 nM |
| CC(C)n1cc(C(=O)c2cncc(NC(=O)Cc3c[nH]c4nccnc34)c2)c2cncnc21 [Example 159, N-{5-[(7-isopropyl-7H-pyrrolo[2,3-d]pyrimidin-5-yl)carbonyl]pyridin-3-yl}-2-(5H-pyrrolo[2,3-b]pyrazin-7-yl)acetamide] | 234 nM |
| Cc1cc2ncn(CC(=O)Nc3cncc(C(=O)c4cn(C(C)C)c5ncncc45)c3)c2cc1C [Example 160, 2-(5,6-dimethyl-1H-benzimidazol-1-yl)-N-{5-[(7-isopropyl-7H-pyrrolo[2,3-d]pyrimidin-5-yl)carbonyl]pyridin-3-yl}acetamide] | 1080 nM |
| CC(C)n1cc(C(=O)c2cncc(NC(=O)Cn3cc(-c4ccccn4)nn3)c2)c2cncnc21 [Example 161, N-{5-[(7-isopropyl-7H-pyrrolo[2,3-d]pyrimidin-5-yl)carbonyl]pyridin-3-yl}-2-(4-pyridin-2-yl-1H-1,2,3-triazol-1-yl)acetamide] | 6270 nM |
